Reference: patent US20140248635A1, “ALPHA-TUBULIN […]” (University of Georgia Research Foundation, Inc., priority 2010, published 2014)

Assays:
GST-MmMEC-17 = assay: In vitro tubulin acetyltransferase assay: effect of added agents on MEC-17 activity; format: biochemical, murine; conditions: purified MEC17-KO tubulin or axonemes, acetyl-CoA
Description: To disrupt the MEC-17 gene in Tetrahymena, we used homologous DNA recombination with a fragment carrying the neo4 marker that replaced the coding region. MEC-17 was overexpressed in Tetrahymena using the MTT1 cadmium-dependent promoter. In C. elegans, MEC-12-K40, MEC-12-Q40, and MEC-12-R40 transgenes were introduced into a single site on chromosome II in the EG4322 strain. Animals homozygous for a MEC-12 transgene and homozygous for the mec-12(e1607) allele were obtained by standard crosses. All touch sensation assays in C. elegans were done using blind scoring. To deplete human MEC-17 (C6Orf134) mRNA in Hela cells, we introduced MEC-17-specific siRNAs (ON-TARGETplus pool, Dharmacon) using Oligofectamine (Invitrogen). To knockdown mec17 expression in zebrafish, MOs designed to target the MEC-17 mRNA (Open Biosystems) were injected into early embryos. ATG-MEC17 MO targets the translation initiation site of mec17 mRNA. SP-MEC17 MO targets the exon3/intron3-4 splice junction, and is expected to result in an aberrant splicing isoform of exon2 to exon 4, producing a frameshift mutation and associated protein truncation. As a negative control, we injected MO with a random sequence (oligo-25N, Gene Tools) or a 5 bp mismatch to the ATG-MEC17 MO. Live embryos were scored for phenotypes at 48 hpf. […] The reaction was detected by western blotting using anti-acetyl-K antibodies. […]

[1] = system: MEC-17-KO Tetrahymena cells; assay: Response of Tetrahymena strains to microtubule drugs (growth, axonemes); format: cell-based; conditions: MEC-17-KO vs wild type
Description: Cells were suspended at 10^5 cell/ml in SPP medium and incubated with the drug for 22 hr at 30° C. and the cell density was determined.

HDAC6 = biological target: T1, HDAC6 (Homo sapiens, UniProt Q9UBN7); conditions: cited from earlier work
T1 sequence (Q9UBN7 1-1215): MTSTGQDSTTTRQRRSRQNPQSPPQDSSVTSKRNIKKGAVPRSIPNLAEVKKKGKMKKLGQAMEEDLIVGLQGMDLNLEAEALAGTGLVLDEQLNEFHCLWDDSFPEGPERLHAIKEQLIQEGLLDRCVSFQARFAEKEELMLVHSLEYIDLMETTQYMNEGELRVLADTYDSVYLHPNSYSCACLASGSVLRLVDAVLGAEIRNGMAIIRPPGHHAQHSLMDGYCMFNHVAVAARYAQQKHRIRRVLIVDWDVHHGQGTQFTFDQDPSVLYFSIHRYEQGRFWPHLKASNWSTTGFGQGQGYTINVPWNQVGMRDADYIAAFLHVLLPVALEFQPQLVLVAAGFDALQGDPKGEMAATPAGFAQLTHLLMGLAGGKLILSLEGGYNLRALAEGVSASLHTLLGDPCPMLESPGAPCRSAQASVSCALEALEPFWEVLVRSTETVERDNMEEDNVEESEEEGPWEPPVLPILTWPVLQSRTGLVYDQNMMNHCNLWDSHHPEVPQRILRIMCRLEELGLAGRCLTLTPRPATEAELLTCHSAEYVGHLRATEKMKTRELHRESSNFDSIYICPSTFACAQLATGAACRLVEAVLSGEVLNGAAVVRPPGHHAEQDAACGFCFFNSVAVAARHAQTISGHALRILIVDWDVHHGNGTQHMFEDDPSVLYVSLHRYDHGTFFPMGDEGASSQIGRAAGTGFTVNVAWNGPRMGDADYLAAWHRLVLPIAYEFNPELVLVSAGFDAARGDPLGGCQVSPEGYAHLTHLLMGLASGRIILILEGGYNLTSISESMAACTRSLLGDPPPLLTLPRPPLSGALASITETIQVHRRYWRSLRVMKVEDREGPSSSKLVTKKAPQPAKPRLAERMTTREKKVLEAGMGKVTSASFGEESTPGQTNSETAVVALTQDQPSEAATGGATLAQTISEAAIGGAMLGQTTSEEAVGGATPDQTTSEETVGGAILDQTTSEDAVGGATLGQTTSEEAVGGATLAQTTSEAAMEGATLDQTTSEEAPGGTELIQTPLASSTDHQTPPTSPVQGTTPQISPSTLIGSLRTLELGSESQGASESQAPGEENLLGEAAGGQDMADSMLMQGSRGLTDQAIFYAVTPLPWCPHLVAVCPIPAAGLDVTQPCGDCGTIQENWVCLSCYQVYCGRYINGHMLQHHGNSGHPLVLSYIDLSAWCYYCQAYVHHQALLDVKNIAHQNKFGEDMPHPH

zebrafish embryos = assay: Phenotypes of live zebrafish embryos at 48 hpf after morpholino injection; format: in vivo
Description: To disrupt the MEC-17 gene in Tetrahymena, we used homologous DNA recombination with a fragment carrying the neo4 marker that replaced the coding region. MEC-17 was overexpressed in Tetrahymena using the MTT1 cadmium-dependent promoter. In C. elegans, MEC-12-K40, MEC-12-Q40, and MEC-12-R40 transgenes were introduced into a single site on chromosome II in the EG4322 strain. Animals homozygous for a MEC-12 transgene and homozygous for the mec-12(e1607) allele were obtained by standard crosses. All touch sensation assays in C. elegans were done using blind scoring. To deplete human MEC-17 (C6Orf134) mRNA in Hela cells, we introduced MEC-17-specific siRNAs (ON-TARGETplus pool, Dharmacon) using Oligofectamine (Invitrogen). To knockdown mec17 expression in zebrafish, MOs designed to target the MEC-17 mRNA (Open Biosystems) were injected into early embryos. ATG-MEC17 MO targets the translation initiation site of mec17 mRNA. SP-MEC17 MO targets the exon3/intron3-4 splice junction, and is expected to result in an aberrant splicing isoform of exon2 to exon 4, producing a frameshift mutation and associated protein truncation. As a negative control, we injected MO with a random sequence (oligo-25N, Gene Tools) or a 5 bp mismatch to the ATG-MEC17 MO. Live embryos were scored for phenotypes at 48 hpf. To produce a recombinant MEC-17 protein, the cDNA sequence of the murine MEC-17 (BF135007, Open Biosystems) was subcloned into pGEX-3× plasmid (GE Healthcare), expressed in BL21 E. coli cells as a GST fusion and purified using GST-Bind kit (Novagen). The in vitro acetylation assays were performed in 50 mM Tris-HCl pH 8.0, […], 0.1 mM EDTA, with purified Tetrahymena MEC-17-KO axonemes or tubulin (purified using DEAE chromatography), recombinant GST-MmMEC-17 enzyme and 10 μM acetyl-CoA. The reaction was detected by western blotting using anti-acetyl-K antibodies.
ATG-MEC17 targets the translation initiation site of MEC-17 mRNA. SP-MEC17 MO targets the exon3/intron3-4 splice junction, and is expected to result in an aberrantly spliced isoform in which exon2 is joined to exon 4. The predicted transcript contains a frameshift mutation and encodes a nonsense protein. As a negative control we injected MO with a random sequence (oligo-25N, Gene Tools) or a 5 bp mismatch to the ATG-MEC17 MO (5′-CATTgAcGTCcTAAGGcAAATgCAT-3′; SEQ ID NO:9). Live embryos were scored for phenotypes at 48 hpf, or fixed processed for immunofluorescence as described (Wloga et al., 2009 Dev Cell 16:867-876). The antibodies were used in the following concentrations: 6-11 B-1 mAb (1:1000), Znp-1 anti-synaptotagmin 1 mAb (1:100). After incubation with secondary antibodies (Zymed) overnight at 4° C. (1:500) embryos were mounted in 100 mg/ml of DABCO (Sigma-Aldrich) in PBS and viewed in a Leica TCS SP confocal microscope. Live zebrafish morphants shown in videos S1-S3 were recorded using on the Zeiss Stemi SV11 Apo microscope and a SPOT FLEX camera (Diagnostic Instruments Inc.) at 12 frames per second.

mec17 mRNA = assay: RT-PCR of mec17 mRNA in morpholino-injected embryos; format: in vivo, zebrafish; conditions: RT-PCR exon 1 to exon 5
Description: Total cDNA was made using randomly-primed mRNA isolated from either control (WT) or embryos injected with 5 bp mismatch MO (MIS), ATG-MO (ATG), or splice-site MO (SP), and amplified using either primers corresponding to the coding sequence of the β-actin gene (top panel) or primers that correspond to the sequence of mec17 between exon 1 and exon 5 (bottom panel). As controls, amplifications were performed on samples that lacked reverse transcriptase (−RT). Note that the β-actin gene primers gave a robust product of the expected size (100 bp) for all +RT samples (top).
For RT-PCR, mRNA was isolated from 70 embryos 24 hpf using TRIzol reagent (Invitrogen, Carslbad, Calif.), and total cDNA was synthesized using iScript cDNA synthesis kit (Bio-Rad Laboratories, Hercules, Calif.). The sequences of primers used to amplify the mec17 cDNA were: MEC17EX1F 5′-[…]-3′ (SEQ ID NO:10) and MEC17EX5R2 5′-[…]-3′ (SEQ ID NO:11). The forward primer binds to exon 1 and the reverse primer binds to exon 5 (the splice blocking morpholino binds to the junction between exon 3 and the intron 3-4). For the control amplification of β-actin cDNA, we used the following primers: 5′-[…]-3′ (SEQ ID NO:12) and 5′-[…]-3′ (SEQ ID NO:13).

Row | Molecule | effect on MEC-17 acetylation activity (GST-MmMEC-17) | Edema of the heart (frequency of phenotype) (zebrafish embryos; Table 2, 1 ng MO, 48 hpf) [%] | Hydrocephaly (frequency of phenotype) (zebrafish embryos; Table 2, 1 ng MO, 48 hpf) [%] | Lethality (frequency of phenotype) (zebrafish embryos; Table 2, 1 ng MO, 48 hpf) [%] | Mobility: reduced mobility (zebrafish embryos; Table 2, 1 ng MO, 48 hpf) [% reduced mobility] | Short body axis (frequency of phenotype) (zebrafish embryos; Table 2, 1 ng MO, 48 hpf) [%] | Small head/eyes: small eyes (zebrafish embryos; Table 2, 1 ng MO, 48 hpf) [% small eyes] | Small head/eyes: small heads (zebrafish embryos; Table 2, 1 ng MO, 48 hpf) [% small heads] | Edema of the heart (frequency of phenotype) (zebrafish embryos; Table 1, 1 ng MO, 48 hpf) [%] | Hydrocephaly (frequency of phenotype) (zebrafish embryos; Table 1, 1 ng MO, 48 hpf) [%] | Lethality (frequency of phenotype) (zebrafish embryos; Table 1, 1 ng MO, 48 hpf) [%] | Paralyzed (frequency of phenotype) (zebrafish embryos; Table 1, 1 ng MO, 48 hpf) [%] | Reduced mobility (frequency of phenotype) (zebrafish embryos; Table 1, 1 ng MO, 48 hpf) [%] | Short body axis (frequency of phenotype) (zebrafish embryos; Table 1, 1 ng MO, 48 hpf) [%] | Small head/eyes (frequency of phenotype) (zebrafish embryos; Table 1, 1 ng MO, 48 hpf) [%] | other results
1 | CC(=O)O[C@H]1C(=O)[C@@]2(C)[C@H]([C@H](OC(=O)c3ccccc3)[C@]3(O)C[C@H](OC(=O)[C@H](O)[C@@H](NC(=O)c4ccccc4)c4ccccc4)C(C)=C1C3(C)C)[C@]1(OC(C)=O)CO[C@@H]1C[C@@H]2O [Paclitaxel, paclitaxel, reference compound] | stimulated |  |  |  |  |  |  |  |  |  |  |  |  |  |  | growth of MEC-17-KO cells in medium with drug, compared with wild type [1]: grew faster than wild-type cells
2 | O=C(CCCCCCC(=O)Nc1ccc([C@H]2O[C@@H](CSc3nc(-c4ccccc4)c(-c4ccccc4)o3)C[C@@H](c3ccc(CO)cc3)O2)cc1)NO [tubacin] |  |  |  |  |  |  |  |  |  |  |  |  |  |  |  | inhibition of HDAC6 (HDAC6): a specific inhibitor
3 | Nc1nc2c(ncn2[C@@H]2O[C@H](COP(=O)(O)OP(=O)(O)OP(=O)(O)O)[C@@H](O)[C@H]2O)c(=O)[nH]1 [GTP] | stimulated |  |  |  |  |  |  |  |  |  |  |  |  |  |  | 
4 | ATG MIS MO: negative control MO, 5 bp mismatch to the ATG-MEC17 MO, 5′-CATTgAcGTCcTAAGGcAAATgCAT-3′ (SEQ ID NO:9) (CATTGACGTCCTAAGGCAAATGCAT; all phosphorodiamidate morpholino (PMO)) [reference compound] |  | 3.8 | 0 | 2.5 | 2.5 | 5.1 | 1.2 | 6.4 |  |  |  |  |  |  |  | gross embryo phenotype / developmental defects (zebrafish embryos; injected embryos): appeared normal
5 | MEC-17 SP MP: morpholino 5′-AGAGAAAGCTATTTTACCCGTTCTG-3′ (SEQ ID NO:8); targets the exon3/intron3-4 splice junction of mec17 (all phosphorodiamidate morpholino (PMO)) |  |  |  |  |  |  |  |  | 13.2 | 33 | 28 | 15 | 23.5 | 41.5 | 47.1 | levels of mec17 mRNA (mec17 mRNA): severe reduction
6 | MEC-17 ATG MO: morpholino 5′-CATTCAGGTCGTAAGGGAAATCCAT-3′ (SEQ ID NO:7); targets the translation initiation site of MEC-17 mRNA (all phosphorodiamidate morpholino (PMO)) |  | 7.9 | 13.8 | 3.7 | 17.5 | 27.1 | 74.4 | 79.2 | 15.4 | 15 | 7 | 15.4 | 41.6 | 35.7 | 28.5 | Mobility: paralyzed (zebrafish embryos; Table 2, 1 ng MO, 48 hpf): 10.1% paralyzed
